Laboratory results reported in patent US20170313674A1, “BENZYLHYDROXIDE DERIVATIVES, PREPARATION THEREOF AND THERAPEUTIC USE THEREOF” (SANOFI, priority 2014, published 2017).
Read-outs that look alike come from different tables or passages of the source.

How the values were obtained:
[1] = system: mitochondrial ATP production on non-small cell lung carcinoma cell lines NCI-H460; assay: Mitochondrial ATP analysis (Cell Titer Glo) in NCI-H460 cells; type: cell-based; details: 1-hour incubation, with sodium iodoacetate (100 μM), concentration inhibiting 50% of mitochondrial ATP production, read-out: IC50 (mito ATP)
Experimental: In order to evaluate the inhibitory activity of the all compounds, an in vitro assay was developed which read out is directly linked to mitochondrial complex 1 inhibition. Since mitochondrial complex 1 contributes to the formation of membrane potential coupled to the mitochondrial ATP synthesis, complex 1 inhibition directly leads in cells to the inhibition of mitochondrial ATP production. Cellular ATP contents were measured in presence of either glycolysis inhibitor (sodium iodocetate) and/or mitochondrial inhibitors (F0F1-ATPase inhibitor: oligomycin or mitochondrial uncoupler: FCCP) to determine the ATP production part relying either on glycolytic or on mitochondrial metabolism.
Mitochondrial ATP Analysis
The compounds of the invention were evaluated for their ability to inhibit mitochondrial
ATP was measured using the Promega Cell Titer Glo kit and protocol. In summary, 1,000 cells were plated in 40 μL in a 384 well plate. 24 hours later, medium was replaced by 20 μl culture medium in presence of compounds: cells were treated in replicates of five with control (PBS), oligomycin A (10 μg/ml), FCCP (30 μM), or the compounds of the invention in dose effect both alone or in combination with sodium iodoacetate (100 μM). Following a 1-hour incubation, 20 μL of CellTtiter-glo™ reaction mix were added to each well for a final volume of 40 μL. Plates were then analyzed for luminescence with a Perkin Elmer EnVision. By comparing the different conditions, global ATP and percentages of both glycolytic and mitochondrial ATP were determined.
The mitochondrial ATP production was calculated as the remaining ATP under iodoacetate treatment minus basal ATP (ATP content under iodoacetate and oligomycin treatment). Inhibitory activity of the compounds on mitochondrial ATP in NCI-H460 cells is expressed as the concentration needed to inhibit 50% of mitochondrial ATP production (IC50, M).

[2] = system: HIF-1a; assay: Western blot model: HIF1-a stabilization in Hep3b cells under hypoxia; type: cell-based; details: hypoxia 1% O2, 6 hours; for Western Blot (range of decrease of HIF1-a stabilization): class symbol
Experimental: Since it was sought to determine the efficacy of the compounds to inhibit HIF1a stabilization under hypoxia, the compounds according to the invention underwent biochemical studies in order to determine their capacity to decrease HIF stabilization in Hep3b cells under hypoxia (western blot model).
Hep3B cells are seeded at a rate of 300000 cells per well in 6-wells culture plate in 2 ml of MEM supplemented with glutamin (2 mM) and 10% FCS (foetal calf serum) and incubated at 37° C. in the presence of 5% CO2. The next day, the cells are placed in contact with the compound and an incubation under hypoxia at 1% O2 is carried out at 37° C. in 95% humidity and 5% CO2 in a sealed anaerobic workstation (Hypoxystation H35-Don Whitley—AES Chemunex) during 6 hours.
Cells were washed (PBS) and lysed in SDS sample buffer. Proteins (25 μg) were separated on 4-12% Bis-Tris gels and transferred onto polyvinylidene difluoride membranes (Millipore). Membranes were blotted with a mouse monoclonal antibody to HIF-1a (BD transduction) and a mouse monoclonal anti-βactin (Sigma). Immunoreactive bands were detected with a horse radish peroxydase (HRP) anti-mouse antibody (Sigma) by enhanced chemiluminescence (Promega).
The inhibitory activity of the compounds for their capacity to decrease HIF1-a stabilization in Hep3b under hypoxia is expressed as range of percentage relative to control with: […]

Structure (SMILES) | IC50 [1] [nM] | Western Blot (decrease of HIF1-a stabilization, percentage relative to control) [2] [%] | Western Blot (range of decrease of HIF1-a stabilization) [2] | IC50 ([1]; Homo sapiens, NCI-H460, 1 h) [nM]
COc1ccc(C(O)COc2ccc(-c3csc(-c4ccc(OC(C)(C)C(O)c5ccc(OC)c(OC)c5)cc4)n3)cc2)cc1OC (single isomer, unassigned) [Compound I-66, 1-(3,4-dimethoxyphenyl)-2-[4-[4-[4-[2-(3,4-dimethoxyphenyl)-2-hydroxy-ethoxy]phenyl]thiazol-2-yl]phenoxy]-2-methyl-propan-1-ol] | 26.5 | 54 | ** (** represents a decrease of HIF-a stabilization between 50 to 70%) | 
COc1cc(C(O)COc2ccc(-c3coc(-c4ccc(OCC(O)c5cc(OC)c(OC)c(OC)c5)cc4)n3)cc2)cc(OC)c1OC (single isomer, unassigned) [Compound I-21, 2-[4-[2-[4-[2-hydroxy-2-(3,4,5-trimethoxyphenyl)ethoxy]phenyl]oxazol-4-yl]phenoxy]-1-(3,4,5-trimethoxyphenyl)ethanol] | 2650 | 52 | ** (** represents a decrease of HIF-a stabilization between 50 to 70%) | 
COc1ccc(C(O)COc2ccc(-c3nc(-c4ccc(OCC(O)c5ccc(OC)c(OC)c5)cc4)c(C)o3)cc2)cc1OC (stereo not drawn) [Compound I-1, 1-(3,4-dimethoxyphenyl)-2-[4-[2-[4-[2-(3,4-dimethoxyphenyl)-2-hydroxy-ethoxy]phenyl]-5-methyl-oxazol-4-yl]phenoxy]ethanol] |  | 48 | * (* represents a decrease of HIF-a stabilization between 30 to 50%) | 353
COc1ccc(C(O)COc2ccc(-c3nc(-c4ccc(OCC(O)c5ccc(OC)c(OC)c5)cc4)c(C)s3)cc2)cc1OC (single isomer, unassigned) [Compound I-11, 1-(3,4-dimethoxyphenyl)-2-[4-[2-[4-[2-(3,4-dimethoxyphenyl)-2-hydroxy-ethoxy]phenyl]-5-methyl-thiazol-4-yl]phenoxy]ethanol] | 557 | 65 | ** (** represents a decrease of HIF-a stabilization between 50 to 70%) | 
COc1ccc(C(O)C(C)(C)Oc2ccc(-c3c[nH]c(-c4ccc(OC(C)(C)C(O)c5ccc(OC)c(OC)c5)cc4)n3)cc2)cc1OC (single isomer, unassigned) [Compound I-55, 1-(3,4-dimethoxyphenyl)-2-[4-[2-[4-[2-(3,4-dimethoxyphenyl)-2-hydroxy-1,1-dimethyl-ethoxy]phenyl]-1H-imidazol-4-yl]phenoxy]-2-methyl-propan-1-ol] |  | 62 | ** (** represents a decrease of HIF-a stabilization between 50 to 70%) | 435
COc1ccc(C(O)COc2ccc(-c3csc(-c4ccc(OCC(O)c5ccc(OC)c(OC)c5)cc4)c3)cc2)cc1OC (stereo not drawn) [Compound I-35, 1-(3,4-dimethoxyphenyl)-2-[4-[5-[4-[2-(3,4-dimethoxyphenyl)-2-hydroxy-ethoxy]phenyl]-3-thienyl]phenoxy]ethanol] |  | 68 | ** (** represents a decrease of HIF-a stabilization between 50 to 70%) | 303
COc1ccc(C(O)C(C)(C)Oc2ccc(-c3nc(-c4ccc(OC(C)(C)C(O)c5ccc(OC)c(OC)c5)cc4)c(C)s3)cc2)cc1OC (single isomer, unassigned) [Compound I-8, 1-(3,4-dimethoxyphenyl)-2-[4-[2-[4-[2-(3,4-dimethoxyphenyl)-2-hydroxy-1,1-dimethyl-ethoxy]phenyl]-5-methyl-thiazol-4-yl]phenoxy]-2-methyl-propan-1-ol] | 2.06 | 47 | * (* represents a decrease of HIF-a stabilization between 30 to 50%) | 
COc1ccc(C(O)COc2ccc(-c3csc(-c4ccc(OC(C)(C)C(O)c5ccc(OC)c(OC)c5)cc4)n3)cc2)cc1OC (single isomer, unassigned) [Compound I-65, 1-(3,4-dimethoxyphenyl)-2-[4-[4-[4-[2-(3,4-dimethoxyphenyl)-2-hydroxy-ethoxy]phenyl]thiazol-2-yl]phenoxy]-2-methyl-propan-1-ol] |  | 41 | * (* represents a decrease of HIF-a stabilization between 30 to 50%) | 23.8
COc1ccc(C(O)COc2ccc(-c3csc(-c4ccc(OCC(O)c5ccc(OC)c(OC)c5)cc4)n3)cc2)cc1OC (single isomer, unassigned) [Compound I-24, 1-(3,4-dimethoxyphenyl)-2-[4-[2-[4-[2-(3,4-dimethoxyphenyl)-2-hydroxy-ethoxy]phenyl]thiazol-4-yl]phenoxy]ethanol] | 254 | 49 | * (* represents a decrease of HIF-a stabilization between 30 to 50%) | 
COc1ccc(C(O)C(C)Oc2ccc(-c3csc(-c4ccc(OC(C)C(O)c5ccc(OC)c(OC)c5)cc4)n3)cc2)cc1OC (single isomer, unassigned) [Compound I-32, 1-(3,4-dimethoxyphenyl)-2-[4-[2-[4-[2-(3,4-dimethoxyphenyl)-2-hydroxy-1-methyl-ethoxy]phenyl]thiazol-4-yl]phenoxy]propan-1-ol] | 47.6 | 45 | * (* represents a decrease of HIF-a stabilization between 30 to 50%) | 
COc1ccc(C(O)C(C)(C)Oc2ccc(-c3nc(-c4ccc(OC(C)(C)C(O)c5ccc(OC)c(OC)c5)cc4)c(C)o3)cc2)cc1OC (stereo not drawn) [Compound I-2, 1-(3,4-dimethoxyphenyl)-2-[4-[2-[4-[2-(3,4-dimethoxyphenyl)-2-hydroxy-1,1-dimethyl-ethoxy]phenyl]-5-methyl-oxazol-4-yl]phenoxy]-2-methyl-propan-1-ol] |  | 54 | ** (** represents a decrease of HIF-a stabilization between 50 to 70%) | 23
COc1ccc(C(O)COc2ccc(-c3cn(C)c(-c4ccc(OCC(O)c5ccc(OC)c(OC)c5)cc4)n3)cc2)cc1OC (stereo not drawn) [Compound I-58, 1-(3,4-dimethoxyphenyl)-2-[4-[2-[4-[2-(3,4-dimethoxyphenyl)-2-hydroxy-ethoxy]phenyl]-1-methyl-imidazol-4-yl]phenoxy]ethanol] |  | 56 | ** (** represents a decrease of HIF-a stabilization between 50 to 70%) | 458
COc1ccc(C(O)COc2ccc(-c3csc(-c4ccc(OC(C)(C)C(O)c5ccc(OC)c(OC)c5)cc4)n3)cc2)cc1OC (stereo not drawn) [Compound I-63, 1-(3,4-dimethoxyphenyl)-2-[4-[4-[4-[2-(3,4-dimethoxyphenyl)-2-hydroxy-ethoxy]phenyl]thiazol-2-yl]phenoxy]-2-methyl-propan-1-ol] |  | 64 | ** (** represents a decrease of HIF-a stabilization between 50 to 70%) | 42.9
COc1ccc(C(O)COc2ccc(-c3nc(-c4ccc(OCC(O)c5ccc(OC)c(OC)c5)cc4)c(C)s3)cc2)cc1OC (single isomer, unassigned) [Compound I-10, 1-(3,4-dimethoxyphenyl)-2-[4-[2-[4-[2-(3,4-dimethoxyphenyl)-2-hydroxy-ethoxy]phenyl]-5-methyl-thiazol-4-yl]phenoxy]ethanol] | 146 | 62 | ** (** represents a decrease of HIF-a stabilization between 50 to 70%) | 
